Experimental data as given in ChEMBL document CHEMBL1131216, “Anhydrolide macrolides. 2. Synthesis and antibacterial activity of 2,3-anhydro-6-O-methyl 11,12-carbazate erythromycin A analogues” (1998).
Values after ≈ are worked out from the molar mass of the structure shown.

Experiments:
Format in all cases: functional
Streptococcus pyogenes [1] = assay: In vitro antibacterial activity of PIU2584 strain of Gram positive bacteria Streptococcus pyogenes
Streptococcus pyogenes [2] = assay: In vitro antibacterial activity of EES61 strain of Gram positive bacteria Streptococcus pyogenes
Staphylococcus aureus [3] = assay: In vitro antibacterial activity of A-5278 strain of Gram positive bacteria Staphylococcus aureus
Streptococcus pyogenes [4] = assay: In vitro antibacterial activity of 930 strain of Gram positive bacteria Streptococcus pyogenes
Staphylococcus aureus [5] = assay: In vitro antibacterial activity of 6538P strain of Gram positive bacteria Staphylococcus aureus
Streptococcus pneumoniae [6] = assay: In vitro antibacterial activity of 5979 strain of Gram positive bacteria Streptococcus pneumoniae
Streptococcus pneumoniae [7] = assay: In vitro antibacterial activity of ATCC 6303 strain of Gram positive bacteria Streptococcus pneumoniae
Haemophilus influenzae = assay: In vitro antibacterial activity of DILL strain of Gram negative bacteria Haemophilus influenzae
Streptococcus pneumoniae [8] = assay: In vitro antibacterial activity of 5649 strain of Gram positive bacteria Streptococcus pneumoniae
Staphylococcus aureus [9] = assay: In vitro antibacterial activity of A5177 strain of Gram positive bacteria Staphylococcus aureus

Compound	MIC (Streptococcus pyogenes [1])	MIC (Streptococcus pyogenes [2])	MIC (Staphylococcus aureus [3])	MIC (Streptococcus pyogenes [4])	MIC (Staphylococcus aureus [5])	MIC (Streptococcus pneumoniae [6])	MIC (Streptococcus pneumoniae [7])	MIC (Haemophilus influenzae)	MIC (Streptococcus pneumoniae [8])	MIC (Staphylococcus aureus [9])
CC[C@H]1OC(=O)/C(C)=C/[C@H](C)[C@@H](O[C@@H]2O[C@H](C)C[C@H](N(C)C)[C@H]2O)[C@@](C)(OC)C[C@@H](C)C(=O)[C@H](C)[C@H]2N(NCCCn3nc4ccccc4n3)C(=O)O[C@]12C	1 µg/mL (≈ 1.3 µM)	0.004 µg/mL (≈ 0.00519 µM)	> 100 µg/mL	128 µg/mL (≈ 166 µM)	0.2 µg/mL (≈ 0.259 µM)	> 128 µg/mL	0.004 µg/mL (≈ 0.00519 µM)	8 µg/mL (≈ 10.4 µM)	0.5 µg/mL (≈ 0.649 µM)	0.2 µg/mL (≈ 0.259 µM)
CC[C@H]1OC(=O)/C(C)=C/[C@H](C)[C@@H](O[C@@H]2O[C@H](C)C[C@H](N(C)C)[C@H]2O)[C@@](C)(OC)C[C@@H](C)C(=O)[C@H](C)[C@H]2N(NCc3ccc(N(C)C)c4ccccc34)C(=O)O[C@]12C	2 µg/mL (≈ 2.52 µM)	0.25 µg/mL (≈ 0.314 µM)	100 µg/mL (≈ 126 µM)	16 µg/mL (≈ 20.1 µM)	3.1 µg/mL (≈ 3.9 µM)	32 µg/mL (≈ 40.3 µM)	0.5 µg/mL (≈ 0.629 µM)	16 µg/mL (≈ 20.1 µM)	2 µg/mL (≈ 2.52 µM)	3.1 µg/mL (≈ 3.9 µM)
CC[C@H]1OC(=O)/C(C)=C/[C@H](C)[C@@H](O[C@@H]2O[C@H](C)C[C@H](N(C)C)[C@H]2O)[C@@](C)(OC)C[C@@H](C)C(=O)[C@H](C)[C@H]2N(NCCc3ccccc3)C(=O)O[C@]12C	2 µg/mL (≈ 2.79 µM)	0.25 µg/mL (≈ 0.349 µM)	> 100 µg/mL	64 µg/mL (≈ 89.4 µM)	0.78 µg/mL (≈ 1.09 µM)	> 64 µg/mL	0.25 µg/mL (≈ 0.349 µM)	> 64 µg/mL	2 µg/mL (≈ 2.79 µM)	0.78 µg/mL (≈ 1.09 µM)
CC[C@H]1OC(=O)/C(C)=C/[C@H](C)[C@@H](O[C@@H]2O[C@H](C)C[C@H](N(C)C)[C@H]2O)[C@@](C)(OC)C[C@@H](C)C(=O)[C@H](C)[C@H]2N(NCCCc3ccccc3)C(=O)O[C@]12C	1 µg/mL (≈ 1.37 µM)	0.06 µg/mL (≈ 0.0822 µM)	50 µg/mL (≈ 68.5 µM)	32 µg/mL (≈ 43.8 µM)	0.1 µg/mL (≈ 0.137 µM)	64 µg/mL (≈ 87.7 µM)	0.125 µg/mL (≈ 0.171 µM)	16 µg/mL (≈ 21.9 µM)	2 µg/mL (≈ 2.74 µM)	0.1 µg/mL (≈ 0.137 µM)
CC[C@H]1OC(=O)/C(C)=C/[C@H](C)[C@@H](O[C@@H]2O[C@H](C)C[C@H](N(C)C)[C@H]2O)[C@@](C)(OC)C[C@@H](C)C(=O)[C@H](C)[C@H]2N(NCCCc3cccc(O)c3)C(=O)O[C@]12C	1 µg/mL (≈ 1.34 µM)	0.06 µg/mL (≈ 0.0804 µM)	> 100 µg/mL	128 µg/mL (≈ 172 µM)	0.1 µg/mL (≈ 0.134 µM)	> 128 µg/mL	0.03 µg/mL (≈ 0.0402 µM)	4 µg/mL (≈ 5.36 µM)	0.5 µg/mL (≈ 0.67 µM)	0.1 µg/mL (≈ 0.134 µM)
CC[C@H]1OC(=O)/C(C)=C/[C@H](C)[C@@H](O[C@@H]2O[C@H](C)C[C@H](N(C)C)[C@H]2O)[C@@](C)(OC)C[C@@H](C)C(=O)[C@@H](C)[C@H]2N(N)C(=O)O[C@]12C	32 µg/mL (≈ 52.3 µM)	8 µg/mL (≈ 13.1 µM)	> 100 µg/mL	> 128 µg/mL	50 µg/mL (≈ 81.7 µM)	> 128 µg/mL	8 µg/mL (≈ 13.1 µM)	> 128 µg/mL	16 µg/mL (≈ 26.2 µM)	50 µg/mL (≈ 81.7 µM)
CC[C@H]1OC(=O)/C(C)=C/[C@H](C)[C@@H](O[C@@H]2O[C@H](C)C[C@H](N(C)C)[C@H]2O)[C@@](C)(OC)C[C@@H](C)C(=O)[C@H](C)[C@H]2N(NCc3ccc(N(C)C)cc3)C(=O)O[C@]12C	1 µg/mL (≈ 1.34 µM)	0.125 µg/mL (≈ 0.168 µM)	> 100 µg/mL	128 µg/mL (≈ 172 µM)	0.2 µg/mL (≈ 0.268 µM)	> 128 µg/mL	0.125 µg/mL (≈ 0.168 µM)	16 µg/mL (≈ 21.5 µM)	1 µg/mL (≈ 1.34 µM)	0.2 µg/mL (≈ 0.268 µM)
CC[C@H]1OC(=O)/C(C)=C/[C@H](C)[C@@H](O[C@@H]2O[C@H](C)C[C@H](N(C)C)[C@H]2O)[C@@](C)(OC)C[C@@H](C)C(=O)[C@H](C)[C@H]2N(NCc3ccc(OC)cc3)C(=O)O[C@]12C	1 µg/mL (≈ 1.37 µM)	0.03 µg/mL (≈ 0.041 µM)	> 100 µg/mL	> 64 µg/mL	0.2 µg/mL (≈ 0.273 µM)	> 64 µg/mL	0.125 µg/mL (≈ 0.171 µM)	8 µg/mL (≈ 10.9 µM)	2 µg/mL (≈ 2.73 µM)	0.2 µg/mL (≈ 0.273 µM)
CC[C@H]1OC(=O)[C@H](C)[C@@H](O[C@H]2C[C@@](C)(OC)[C@@H](O)[C@H](C)O2)[C@H](C)[C@@H](O[C@@H]2O[C@H](C)C[C@H](N(C)C)[C@H]2O)[C@](C)(O)C[C@@H](C)C(=O)[C@H](C)[C@@H](O)[C@]1(C)O [ERYTHROMYCIN]	32 µg/mL (≈ 43.6 µM)	0.03 µg/mL (≈ 0.0409 µM)	> 100 µg/mL	> 128 µg/mL	0.2 µg/mL (≈ 0.273 µM)	> 128 µg/mL	0.06 µg/mL (≈ 0.0818 µM)	4 µg/mL (≈ 5.45 µM)	16 µg/mL (≈ 21.8 µM)	3.1 µg/mL (≈ 4.22 µM)
CC[C@H]1OC(=O)/C(C)=C/[C@H](C)[C@@H](O[C@@H]2O[C@H](C)C[C@H](N(C)C)[C@H]2O)[C@@](C)(OC)C[C@@H](C)C(=O)[C@H](C)[C@H]2N(NC/C=C/c3ccc([N+](=O)[O-])o3)C(=O)O[C@]12C	0.25 µg/mL (≈ 0.328 µM)	0.004 µg/mL (≈ 0.00524 µM)	> 100 µg/mL	64 µg/mL (≈ 83.9 µM)	0.02 µg/mL (≈ 0.0262 µM)	> 128 µg/mL	0.03 µg/mL (≈ 0.0393 µM)	2 µg/mL (≈ 2.62 µM)	0.5 µg/mL (≈ 0.655 µM)	0.01 µg/mL (≈ 0.0131 µM)
CC[C@H]1OC(=O)/C(C)=C/[C@H](C)[C@@H](O[C@@H]2O[C@H](C)C[C@H](N(C)C)[C@H]2O)[C@@](C)(OC)C[C@@H](C)C(=O)[C@H](C)[C@H]2N(NCc3c[nH]c4ccccc34)C(=O)O[C@]12C	0.5 µg/mL (≈ 0.675 µM)	0.06 µg/mL (≈ 0.081 µM)	> 100 µg/mL	> 64 µg/mL	0.39 µg/mL (≈ 0.526 µM)	> 64 µg/mL	0.125 µg/mL (≈ 0.169 µM)	8 µg/mL (≈ 10.8 µM)	1 µg/mL (≈ 1.35 µM)	0.39 µg/mL (≈ 0.526 µM)
CC[C@H]1OC(=O)/C(C)=C/[C@H](C)[C@@H](O[C@@H]2O[C@H](C)C[C@H](N(C)C)[C@H]2O)[C@@](C)(OC)C[C@@H](C)C(=O)[C@H](C)[C@H]2N(NCc3ccc(N)cc3)C(=O)O[C@]12C	1 µg/mL (≈ 1.39 µM)	0.06 µg/mL (≈ 0.0837 µM)	> 100 µg/mL	> 128 µg/mL	0.78 µg/mL (≈ 1.09 µM)	> 128 µg/mL	0.25 µg/mL (≈ 0.349 µM)	16 µg/mL (≈ 22.3 µM)	1 µg/mL (≈ 1.39 µM)	0.78 µg/mL (≈ 1.09 µM)
CC[C@H]1OC(=O)/C(C)=C/[C@H](C)[C@@H](O[C@@H]2O[C@H](C)C[C@H](N(C)C)[C@H]2O)[C@@](C)(OC)C[C@@H](C)C(=O)[C@H](C)[C@H]2N(NCCCc3ccc(NC(C)=O)cc3)C(=O)O[C@]12C	2 µg/mL (≈ 2.54 µM)	0.06 µg/mL (≈ 0.0762 µM)	> 100 µg/mL	> 128 µg/mL	0.39 µg/mL (≈ 0.496 µM)	> 128 µg/mL	0.06 µg/mL (≈ 0.0762 µM)	8 µg/mL (≈ 10.2 µM)	2 µg/mL (≈ 2.54 µM)	0.39 µg/mL (≈ 0.496 µM)
CC[C@H]1OC(=O)/C(C)=C/[C@H](C)[C@@H](O[C@@H]2O[C@H](C)C[C@H](N(C)C)[C@H]2O)[C@@](C)(OC)C[C@@H](C)C(=O)[C@H](C)[C@H]2N(NCCCc3ccc(F)cc3)C(=O)O[C@]12C	1 µg/mL (≈ 1.34 µM)	0.03 µg/mL (≈ 0.0401 µM)	50 µg/mL (≈ 66.8 µM)	64 µg/mL (≈ 85.6 µM)	0.39 µg/mL (≈ 0.521 µM)	64 µg/mL (≈ 85.6 µM)	0.06 µg/mL (≈ 0.0802 µM)	16 µg/mL (≈ 21.4 µM)	1 µg/mL (≈ 1.34 µM)	0.2 µg/mL (≈ 0.267 µM)
CC[C@H]1OC(=O)/C(C)=C/[C@H](C)[C@@H](O[C@@H]2O[C@H](C)C[C@H](N(C)C)[C@H]2O)[C@@](C)(OC)C[C@@H](C)C(=O)[C@H](C)[C@H]2N(NCCCn3nnc4ccccc43)C(=O)O[C@]12C	1 µg/mL (≈ 1.3 µM)	0.03 µg/mL (≈ 0.0389 µM)	> 100 µg/mL	> 128 µg/mL	0.2 µg/mL (≈ 0.259 µM)	> 128 µg/mL	0.03 µg/mL (≈ 0.0389 µM)	4 µg/mL (≈ 5.19 µM)	1 µg/mL (≈ 1.3 µM)	0.1 µg/mL (≈ 0.13 µM)
CC[C@H]1OC(=O)/C(C)=C/[C@H](C)[C@@H](O[C@@H]2O[C@H](C)C[C@H](N(C)C)[C@H]2O)[C@@](C)(OC)C[C@@H](C)C(=O)[C@H](C)[C@H]2N(NCCCc3cccc([N+](=O)[O-])c3)C(=O)O[C@]12C	0.25 µg/mL (≈ 0.323 µM)	0.004 µg/mL (≈ 0.00516 µM)	> 100 µg/mL	64 µg/mL (≈ 82.6 µM)	0.2 µg/mL (≈ 0.258 µM)	128 µg/mL (≈ 165 µM)	0.004 µg/mL (≈ 0.00516 µM)	8 µg/mL (≈ 10.3 µM)	0.25 µg/mL (≈ 0.323 µM)	0.2 µg/mL (≈ 0.258 µM)
